# According to US20230234941A1, “Salts of Compound and Pharmaceutical Compositions Containing the Same” (Shenzhen Forward Pharmaceuticals Co., Limited., priority 2020, published 2023):
# Entries after “also recorded” stand apart in the source; their conditions may differ.
# How the values were obtained:
# [1] = Chemical and physical stability of the salts at the end of the preparation; assay type: physicochemical
# From the text: It is crucial for drug development whether the salts obtained as above have chemical and physical stability at the end of the preparation. The chemical and physical stability of the salts at the end of the preparation includes: […]
# [2] = Solid solubility test (2 h and 24 h); assay type: physicochemical; settings: for XRPD measured at 2 h: state of sample / solid fraction
# Protocol: samples were weighed for each amorphous salt solid (equivalent to 20 mg of free base), and 10 mL of the following solvents were respectively added: 0.1N HCl solution (pH 1.0), 50 mM phosphate buffer (pH 4.5), FeSSIF-V1 (pH 5.0), FaSSIF-V1 (pH 6.5) and SGF (pH 2.0), […] The suspension was then centrifuged at 37° C., the supernatant was measured for solubility by HPLC, and the solid fraction was measured for XRPD. The target solubility was at least 2 mg (based on free base)/mL.
# [3] = Solid storage stability test; assay type: physicochemical; settings: for Original morphology / Original purity: original solid before storage; for chemical and physical stability after storage (summary): solid/25° C./60% RH/open/1 week and/or solid/60° C./closed container/1 week
# Protocol: Each amorphous salt solid was weighed (two 2 mg samples were weighed for purity testing after solid storage stability study, and one 10 mg sample was weighed for XRPD testing after solid storage stability study) and placed in a glass vial. In a 25° C./60% RH solid storage stability test, the amorphous salt solid was placed in a 25° C./60% RH constant temperature and humidity chamber, and placed in the dark for 1 week (i.e. “solid/25° C./60% RH/open/1 week”), and in a 60° C. solid storage stability test, the amorphous salt solid was sealed in an oven at 60° C. and heated for 1 week in the dark (i.e. “solid/60° C./closed container/l week”). Then the sample was taken out for purity testing, crystal form detection and appearance observation, respectively.
# [4] = system: EGFR activating mutation (such as exon 19 deletion activating mutation, L858R activating mutation, T790M drug resistance mutation and exon 20 insertion …); settings: disclosed in CN105461695B; cited from earlier work
# [5] = listed as amorphous 1 eq. esylate salt
# [6] = FaSSIF-V1 (pH 6.5) (Test ES4, partly printed ES1)
# [7] = FaSSIF-V1 (pH 6.5) (Test ES4, partly printed ES1), 37° C., based on free base
# [8] = Test ES1: 0.1N HCl solution (pH 1.0)
# [9] = Test ES1: 0.1N HCl solution (pH 1.0), 37° C., based on free base
# [10] = Test ES2: 50 mM phosphate buffer (pH 4.5)
# [11] = Test ES2: 50 mM phosphate buffer (pH 4.5), 37° C., based on free base
# [12] = Test ES3: FeSSIF-V1 (pH 5.0), 37° C., based on free base
# [13] = Test ES5: SGF (pH 2.0), 37° C., based on free base
# [14] = Test BS1: solid/25° C./60% RH/open/1 week
# [15] = solid/60° C./closed container/1 week (Test BS1)
# [16] = listed as amorphous 1 eq. maleate salt
# [17] = listed as 1 eq. hydrobromide salt
# [18] = listed as crystalline 1 eq. hydrobromide salt
Compound,"pH measured at 2 h [2, 6]","Solubility measured at 2 h [2, 7] [µg/mL]","XRPD measured at 2 h [2, 6]","pH measured at 2 h [2, 8]","Solubility measured at 2 h [2, 9] [µg/mL]","XRPD measured at 2 h [2, 8]","pH measured at 2 h [2, 10]","Solubility measured at 2 h [2, 11] [µg/mL]","XRPD measured at 2 h [2, 10]",pH measured at 2 h ([2]; Test ES3: FeSSIF-V1 (pH 5.0)),"Solubility measured at 2 h [2, 12] [µg/mL]",XRPD measured at 2 h ([2]; Test ES3: FeSSIF-V1 (pH 5.0)),pH measured at 2 h ([2]; Test ES5: SGF (pH 2.0)),"Solubility measured at 2 h [2, 13] [µg/mL]",XRPD measured at 2 h ([2]; Test ES5: SGF (pH 2.0)),"Purity [3, 14] [%]",Original morphology [3],Original purity [3] [%],"Purity [3, 15] [%]",other results
C=CC(=O)Nc1cc(Nc2ncnc(-c3cn(C)c4ccccc34)n2)c(OC)cc1N(C)CCN(C)C [Example 8],(6.4),>2000,clear solution,(0.8),>2000,clear solution,(4.4),>2000,clear solution,(4.8),>2000,clear solution,(1.9),>2000,clear solution,99.9,amorphous,99.8,99.8,"chemical and physical stability at the end of the preparation ([1]; listed as 1 eq. esylate salt): chemically and physically stable; chemical and physical stability at the end of the preparation [1, 5]: chemically and physically stable; chemical and physical stability after storage (summary) ([3]; listed as 1 eq. esylate salt): physically unstable; chemical and physical stability after storage (summary) [3, 5]: physically unstable; physical and chemical stability under storage (in words) ([3]; solid/25° C./60% RH/open/1 week, listed as amorphous 1 eq. esylate salt): significant hygroscopicity (caking and fusion to a glassy state); physical and chemical stability under storage (in words) ([3]; solid/60° C./closed container/1 week, listed as amorphous 1 eq. esylate salt): good physical and chemical stability"
C=CC(=O)Nc1cc(Nc2ncnc(-c3cn(C)c4ccccc34)n2)c(OC)cc1N(C)CCN(C)C [Example 9],(6.1),>2000,clear solution,(0.8),>2000,clear solution,(4.3),>2000,clear solution,(4.8),>2000,clear solution,(2.0),,clear solution,99.7,amorphous,99.8,98.2,"chemical and physical stability at the end of the preparation ([1]; listed as 1 eq. maleate salt): chemically and physically stable; chemical and physical stability at the end of the preparation [1, 16]: chemically and physically stable; solubility at 2 h ([2]; SGF, 37 °C, pH 2, simulated gastric fluid, thermodynamic from solid, Test ES5: SGF (pH 2.0), 37° C., based on free base, read-out: Solubility measured at 2 h): > 2000 µg/mL; chemical and physical stability after storage (summary) ([3]; listed as 1 eq. maleate salt): chemically unstable; also recorded: physically unstable; chemical and physical stability after storage (summary) [3, 16]: chemically unstable; also recorded: physically unstable; physical and chemical stability under storage (in words) ([3]; solid/25° C./60% RH/open/1 week, listed as amorphous 1 eq. maleate salt): slight color change and showed a certain hygroscopicity (agglomeration); decrease in purity ([3]; solid/60° C./closed container/1 week): about 2%; physical and chemical stability under storage (in words) ([3]; solid/60° C./closed container/1 week, listed as amorphous 1 eq. maleate salt): transformed from amorphous to a low crystallinity"
C=CC(=O)Nc1cc(Nc2ncnc(-c3cn(C)c4ccccc34)n2)c(OC)cc1N(C)CCN(C)C [Example 10],(6.4),700,,(0.8),>2000,clear solution,(4.4),>2000,clear solution,(4.8),>2000,clear solution,(1.9),>2000,clear solution,99.9,crystalline,99.9,99.9,"chemical and physical stability at the end of the preparation [1, 17]: chemically and physically stable; chemical and physical stability at the end of the preparation [1, 18]: chemically and physically stable; chemical and physical stability after storage (summary) [3, 17]: chemically and physically stable; chemical and physical stability after storage (summary) [3, 18]: chemically and physically stable; physical and chemical stability under storage (in words) ([3]; solid/25° C./60% RH/open/1 week, listed as crystalline 1 eq. hydrobromide salt): good physical and chemical stability; physical and chemical stability under storage (in words) ([3]; solid/60° C./closed container/1 week, listed as crystalline 1 eq. hydrobromide salt): good physical and chemical stability"
C=CC(=O)Nc1cc(Nc2ncnc(-c3cn(C)c4ccccc34)n2)c(OC)cc1N(C)CCN(C)C [compound of formula (I)],,,,,,,,,,,,,,,,,,,,inhibitory activity against EGFR activating mutation compared with wild-type EGFR (WT EGFR) [4]: significantly higher
